Reference: patent publication US11445724B2, “Insecticidal compounds” (SYNGENTA PARTICIPATIONS AG, priority 2013, dated 2022)

Experiments:
Format in all cases: in vivo
[1] = test system: Plutella xylostella (Diamond back moth); assay: Plutella xylostella (Diamond back moth) larval mortality, artificial diet in 24-well MTP; conditions: 144 h, application rate 200 ppm (concentration in well 18 ppm), L2 larvae, larval mortality after 6 days
[2] = test system: Tetranychus urticae (Two-spotted spider mite); assay: Tetranychus urticae (Two-spotted spider mite) mortality, sprayed bean leaf discs; conditions: foliar, 192 h, 200 ppm spray on bean leaf discs, mixed ages, egg, larval and adult mortality after 8 days
[3] = test system: Spodoptera littoralis (Egyptian cotton leafworm); assay: Spodoptera littoralis (Egyptian cotton leafworm) mortality, sprayed cotton leaf discs; conditions: foliar, 72 h, 200 ppm spray on cotton leaf discs, L1 larvae, mortality 3 DAT
[4] = test system: Myzus persicae (Green peach aphid); assay: Myzus persicae (Green peach aphid) mortality, sprayed sunflower leaf discs; conditions: foliar, 144 h, 200 ppm spray on sunflower leaf discs, mixed ages, mortality 6 DAT
[5] = test system: Myzus persicae (Green peach aphid); assay: Myzus persicae (Green peach aphid) mortality, test compounds mixed with Sucrose solution under Parafilm; conditions: 120 h, 12.5 ppm in Sucrose solution, infested pea seedlings on Parafilm, mortality 5 days after infestation
[6] = test system: Diabrotica balteata (Corn root worm); assay: Diabrotica balteata (Corn root worm) larval mortality, artificial diet in 24-well MTP; conditions: 120 h, application rate 200 ppm (concentration in well 18 ppm), L2 larvae, larval mortality after 5 days
[7] = test system: Thrips tabaci (Onion thrips); assay: Thrips tabaci (Onion thrips) mortality, sprayed sunflower leaf discs; conditions: foliar, 168 h, 200 ppm spray on sunflower leaf discs, mixed ages, mortality after 7 days

O=C(Nc1cccc(C(=O)Nc2c(Br)cc(C(F)(C(F)(F)F)C(F)(F)F)cc2OC(F)F)c1F)c1ccncc1 [Compound 1]
≥ 80%: pest or weed control at 200 ppm [1] | pest or weed control at 200 ppm [2] | pest or weed control at 200 ppm [3] | pest or weed control at 200 ppm [4] | pest or weed control at 12.5 ppm [5] | pest or weed control at 200 ppm [6] | pest or weed control at 200 ppm [7]

CCN(C(=O)c1ccncc1)c1cccc(C(=O)Nc2c(Br)cc(C(F)(C(F)(F)F)C(F)(F)F)cc2OC(F)F)c1F [Compound 2, N-[3-[[2-bromo-6-(difluoromethoxy)-4-[1,2,2,2-tetrafluoro-1-(trifluoromethyl)ethyl]phenyl]carbamoyl]-2-fluoro-phenyl]-N-ethyl-pyridine-4-carboxamide]
≥ 80%: pest or weed control at 200 ppm [1] | pest or weed control at 200 ppm [2] | pest or weed control at 200 ppm [3] | pest or weed control at 200 ppm [4] | pest or weed control at 12.5 ppm [5] | pest or weed control at 200 ppm [6] | pest or weed control at 200 ppm [7]

COc1c(NC(=O)c2ccncc2)cccc1C(=O)Nc1c(Br)cc(C(F)(C(F)(F)F)C(F)(F)F)cc1OC(F)F [Compound 3]
≥ 80%: pest or weed control at 200 ppm [1] | pest or weed control at 200 ppm [2] | pest or weed control at 200 ppm [3] | pest or weed control at 200 ppm [4] | pest or weed control at 12.5 ppm [5] | pest or weed control at 200 ppm [6] | pest or weed control at 200 ppm [7]

CCN(C(=O)c1ccncc1)c1cccc(C(=O)Nc2c(Br)cc(C(F)(C(F)(F)F)C(F)(F)F)cc2OC(F)F)c1OC [Compound 4]
≥ 80%: pest or weed control at 200 ppm [1] | pest or weed control at 200 ppm [2] | pest or weed control at 200 ppm [3] | pest or weed control at 200 ppm [4] | pest or weed control at 12.5 ppm [5] | pest or weed control at 200 ppm [6] | pest or weed control at 200 ppm [7]

N#Cc1ccc(C(=O)Nc2cccc(C(=O)Nc3c(Br)cc(C(F)(C(F)(F)F)C(F)(F)F)cc3OC(F)F)c2F)cc1 [Compound 5]
≥ 80%: pest or weed control at 200 ppm [1] | pest or weed control at 200 ppm [2] | pest or weed control at 200 ppm [3] | pest or weed control at 200 ppm [4] | pest or weed control at 12.5 ppm [5] | pest or weed control at 200 ppm [6] | pest or weed control at 200 ppm [7]

COc1c(NC(=O)c2ccc(C#N)cc2)cccc1C(=O)Nc1c(Br)cc(C(F)(C(F)(F)F)C(F)(F)F)cc1OC(F)F [Compound 6]
≥ 80%: pest or weed control at 200 ppm [1] | pest or weed control at 200 ppm [2] | pest or weed control at 200 ppm [3] | pest or weed control at 200 ppm [4] | pest or weed control at 12.5 ppm [5] | pest or weed control at 200 ppm [6] | pest or weed control at 200 ppm [7]

CCN(C(=O)c1ccc(C#N)cc1)c1cccc(C(=O)Nc2c(Br)cc(C(F)(C(F)(F)F)C(F)(F)F)cc2OC(F)F)c1OC [Compound 9]
≥ 80%: pest or weed control at 200 ppm [1] | pest or weed control at 200 ppm [2] | pest or weed control at 200 ppm [3] | pest or weed control at 200 ppm [4] | pest or weed control at 12.5 ppm [5] | pest or weed control at 200 ppm [6] | pest or weed control at 200 ppm [7]

CCN(C(=O)c1ccc(C#N)cc1)c1cccc(C(=O)Nc2c(Br)cc(C(F)(C(F)(F)F)C(F)(F)F)cc2OC(F)F)c1F [Compound 10]
≥ 80%: pest or weed control at 200 ppm [1] | pest or weed control at 200 ppm [2] | pest or weed control at 200 ppm [3] | pest or weed control at 200 ppm [4] | pest or weed control at 12.5 ppm [5] | pest or weed control at 200 ppm [6] | pest or weed control at 200 ppm [7]

CCN(C(=O)c1cc[n+]([O-])cc1)c1cccc(C(=O)Nc2c(Br)cc(C(F)(C(F)(F)F)C(F)(F)F)cc2OC(F)F)c1F [Compound 11, N-[3-[[2-bromo-6-(difluoromethoxy)-4-[1,2,2,2-tetrafluoro-1-(trifluoromethyl)ethyl]phenyl]carbamoyl]-2-fluoro-phenyl]-N-ethyl-1-oxido-pyridin-1-ium-4-carboxamide]
≥ 80%: pest or weed control at 200 ppm [1] | pest or weed control at 200 ppm [2] | pest or weed control at 200 ppm [3] | pest or weed control at 200 ppm [4] | pest or weed control at 12.5 ppm [5] | pest or weed control at 200 ppm [6] | pest or weed control at 200 ppm [7]

CCN(C(=O)c1cc[n+]([O-])cc1)c1cccc(C(=O)Nc2c(Br)cc(C(F)(C(F)(F)F)C(F)(F)F)cc2OC(F)F)c1OC [Compound 12]
≥ 80%: pest or weed control at 200 ppm [1] | pest or weed control at 200 ppm [2] | pest or weed control at 200 ppm [3] | pest or weed control at 200 ppm [4] | pest or weed control at 12.5 ppm [5] | pest or weed control at 200 ppm [6] | pest or weed control at 200 ppm [7]

N#Cc1ccc(C(=O)Nc2cccc(C(=O)Nc3c(Cl)cc(C(F)(C(F)(F)F)C(F)(F)F)cc3OC(F)F)c2F)cc1 [Compound 13]
≥ 80%: pest or weed control at 200 ppm [1] | pest or weed control at 200 ppm [2] | pest or weed control at 200 ppm [3] | pest or weed control at 200 ppm [4] | pest or weed control at 12.5 ppm [5] | pest or weed control at 200 ppm [6] | pest or weed control at 200 ppm [7]

COc1c(NC(=O)c2ccc(C#N)cc2)cccc1C(=O)Nc1c(Cl)cc(C(F)(C(F)(F)F)C(F)(F)F)cc1OC(F)F [Compound 14, N-[2-chloro-6-(difluoromethoxy)-4-[1,2,2,2-tetrafluoro-1-(trifluoromethyl)ethyl]phenyl]-3-[(4-cyanobenzoyl)amino]-2-methoxy-benzamide]
≥ 80%: pest or weed control at 200 ppm [1] | pest or weed control at 200 ppm [2] | pest or weed control at 200 ppm [3] | pest or weed control at 200 ppm [4] | pest or weed control at 12.5 ppm [5] | pest or weed control at 200 ppm [6] | pest or weed control at 200 ppm [7]

O=C(Nc1cccc(C(=O)Nc2c(Cl)cc(C(F)(C(F)(F)F)C(F)(F)F)cc2OC(F)F)c1F)c1ccncc1 [Compound 15]
≥ 80%: pest or weed control at 200 ppm [1] | pest or weed control at 200 ppm [2] | pest or weed control at 200 ppm [3] | pest or weed control at 200 ppm [4] | pest or weed control at 12.5 ppm [5] | pest or weed control at 200 ppm [6] | pest or weed control at 200 ppm [7]

COc1c(NC(=O)c2ccncc2)cccc1C(=O)Nc1c(Cl)cc(C(F)(C(F)(F)F)C(F)(F)F)cc1OC(F)F [Compound 16]
≥ 80%: pest or weed control at 200 ppm [1] | pest or weed control at 200 ppm [2] | pest or weed control at 200 ppm [3] | pest or weed control at 200 ppm [4] | pest or weed control at 12.5 ppm [5] | pest or weed control at 200 ppm [6] | pest or weed control at 200 ppm [7]

CCN(C(=O)c1ccc(C#N)cc1)c1cccc(C(=O)Nc2c(Cl)cc(C(F)(C(F)(F)F)C(F)(F)F)cc2OC(F)F)c1F [Compound 17]
≥ 80%: pest or weed control at 200 ppm [1] | pest or weed control at 200 ppm [2] | pest or weed control at 200 ppm [3] | pest or weed control at 200 ppm [4] | pest or weed control at 12.5 ppm [5] | pest or weed control at 200 ppm [6] | pest or weed control at 200 ppm [7]

CCN(C(=O)c1ccc(C#N)cc1)c1cccc(C(=O)Nc2c(Cl)cc(C(F)(C(F)(F)F)C(F)(F)F)cc2OC(F)F)c1OC [Compound 18]
≥ 80%: pest or weed control at 200 ppm [1] | pest or weed control at 200 ppm [2] | pest or weed control at 200 ppm [3] | pest or weed control at 200 ppm [4] | pest or weed control at 12.5 ppm [5] | pest or weed control at 200 ppm [6] | pest or weed control at 200 ppm [7]

CCN(C(=O)c1ccncc1)c1cccc(C(=O)Nc2c(Cl)cc(C(F)(C(F)(F)F)C(F)(F)F)cc2OC(F)F)c1F [Compound 19]
≥ 80%: pest or weed control at 200 ppm [1] | pest or weed control at 200 ppm [2] | pest or weed control at 200 ppm [3] | pest or weed control at 200 ppm [4] | pest or weed control at 12.5 ppm [5] | pest or weed control at 200 ppm [6] | pest or weed control at 200 ppm [7]

CCN(C(=O)c1ccncc1)c1cccc(C(=O)Nc2c(Cl)cc(C(F)(C(F)(F)F)C(F)(F)F)cc2OC(F)F)c1OC [Compound 20]
≥ 80%: pest or weed control at 200 ppm [1] | pest or weed control at 200 ppm [2] | pest or weed control at 200 ppm [3] | pest or weed control at 200 ppm [4] | pest or weed control at 12.5 ppm [5] | pest or weed control at 200 ppm [6] | pest or weed control at 200 ppm [7]

O=C(Nc1cccc(C(=O)Nc2c(Cl)cc(C(F)(C(F)(F)F)C(F)(F)F)cc2OC(F)F)c1F)c1ccc(F)c(C(F)(F)F)c1 [Compound 62]
≥ 80%: pest or weed control at 200 ppm [1] | pest or weed control at 200 ppm [2] | pest or weed control at 200 ppm [3] | pest or weed control at 12.5 ppm [5] | pest or weed control at 200 ppm [6]

O=C(Nc1cccc(C(=O)Nc2c(Cl)cc(C(F)(C(F)(F)F)C(F)(F)F)cc2OC(F)F)c1F)c1ccc(F)cc1Cl [Compound 74]
≥ 80%: pest or weed control at 200 ppm [1] | pest or weed control at 200 ppm [2] | pest or weed control at 200 ppm [3] | pest or weed control at 12.5 ppm [5] | pest or weed control at 200 ppm [6] | pest or weed control at 200 ppm [7]

CCN(C(=O)c1ccccc1Cl)c1cccc(C(=O)Nc2c(Cl)cc(C(F)(C(F)(F)F)C(F)(F)F)cc2OC(F)F)c1F [Compound 112]
≥ 80%: pest or weed control at 200 ppm [1] | pest or weed control at 200 ppm [2] | pest or weed control at 200 ppm [3] | pest or weed control at 200 ppm [4] | pest or weed control at 200 ppm [6] | pest or weed control at 200 ppm [7]

CCN(C(=O)c1ccc([N+](=O)[O-])cc1Cl)c1cccc(C(=O)Nc2c(Cl)cc(C(F)(C(F)(F)F)C(F)(F)F)cc2OC(F)F)c1OC [Compound 152]
≥ 80%: pest or weed control at 200 ppm [1] | pest or weed control at 200 ppm [2] | pest or weed control at 200 ppm [3] | pest or weed control at 12.5 ppm [5] | pest or weed control at 200 ppm [6] | pest or weed control at 200 ppm [7]
